According to US12403128B2, “Compositions and methods for blocking sodium channels” (University of Virginia Patent Foundation, priority 2017, dated 2025):
Counter-ions that a name gives are not always drawn. Like-named read-outs stand apart in the source and are kept apart here.

Legend:
[1] = system: Metrazol-induced clonic seizures; experiment: scM (subcutaneous Metrazol) test, mice; format: in vivo; settings: mice; for ED50: Mus musculus
Procedure: (§1) Evaluation of Compounds in scM Models of Seizures. Subcutaneous injection of the convulsant Metrazol produces clonic seizures in laboratory animals. […] Animals may be pretreated with various doses of the test compound given by ip injection. At a previously determined TPE (time to peak) of the test compound, the dose of Metrazol which will induce convulsions in 97% of animals (CD97:85 mg/kg mice) may be injected into a loose fold of skin in the midline of the neck. The animals may be placed in isolation cages to minimize stress and observed for the next 30 min for the presence or absence of a seizure. An episode of clonic spasms, approximately 3-5 seconds, of the fore and/or hindlimbs, jaws, or vibrissae may be taken as the endpoint. […] The scM test represents acute animal seizures.

[2] = system: maximal electroshock (MES) seizures; experiment: MES (maximal electroshock) test, mice; format: in vivo; settings: mice; for ED50: Mus musculus
Excerpt: Evaluation of Compounds in MES Models of Seizures. […] These seizures are highly reproducible and are electrophysiologically consistent with human seizures. […] Abolition of the hindleg tonic extensor component of the seizure was used as the endpoint.

[3] = system: 6 Hz psychomotor seizures; experiment: 6 Hz psychomotor seizure test, mice; format: in vivo; settings: IP; for 6 Hz (32 mA) ED50 / 6 Hz (14 mA) ED50: Table 14; for ED50: Mus musculus
Procedure: Evaluation of Compounds in 6 Hz Pyschomotor Seizure Test
Compounds were tested using a 6 Hz psychomotor seizure test. […] For example, both the MES and scM models are insensitive to levetiracetam, a compound considered potentially useful in the management of refractory seizures. […] Thus, the 6 Hz test can serve as a therapy resistant screening paradigm of acute seizure activity.

[4] = system: 6 Hz psychomotor seizures; settings: cited from earlier work
in vivo = settings: mouse
[5] = system: Metrazol-induced clonic seizures; experiment: scM (subcutaneous Metrazol) test, rats; format: in vivo; settings: Rattus norvegicus, rats
Procedure: as §1

[6] = system: corneal kindled mice seizures; experiment: Corneal kindled mice model; format: in vivo; settings: for Avg. Score / N/F (animals active over number tested): TPE 0.5 hours
Procedure: Evaluation of Compounds in Corneal Kindled Mice Model.
Corneal kindled mice are kindled electrically via 3 second stimulation at 8 mA, 60 Hz through corneal electrodes to produce 10 consecutive stage […] seizures according to the Racine scale. Animals are defined as kindled once they progress to a reproducible stage 5 seizure. 72 hours after the mice have been kindled the test substance is administered and, according to a previously determined TPE (time to peak), the animals are electrically stimulated. The animals are considered protected when displaying a stage 3, or lower, seizure.

[7] = Behavioral toxicity (TOX, TD50), rats; format: in vivo; settings: rat, in vivo
Nav1.6 [8] = target: T1, Nav1.6 (Homo sapiens, UniProt Q9UQD0); experiment: % block of Nav1.6 at 100 μM and IC50 (NaV1.6); format: cell-based; settings: for inhibition at 100 µM: 100 μM compound
Procedure: Evaluation of Compounds for % Block of Nav1.6 at 100 μM
Compounds of the present invention were tested in an assay for % block of Nav1.6 at a concentration of 100 μM compound. Table 1 also indicates the melting point ranges for some compounds.
Some such compounds correspond to a compound of Formula III, wherein R9 is substituted with a halogen, a nitro or a CF3 group. In comparing MV1089, MV1090 and MV1091, it is shown that compounds of Formula III where R3 is H result in higher % block than when R3 is substituted. e.g., by OCH3. In comparing MV1066, MV1084, MV1085, MV1086, MV1087 and MV1088, it is shown that compounds of Formula III where R9 is halogen, a nitro or a CF3 group result in higher % block than when R9 is OCH3, COOH or CH3.

[9] = system: maximal electroshock (MES) seizures; experiment: MES (maximal electroshock) test, rats; format: in vivo; settings: Rattus norvegicus, rats
Excerpt: Evaluation of Compounds in MES Models of Seizures. The MES is a model for generalized tonic-clonic seizures and provides an indication of a compound's ability to prevent seizure spread when all neuronal circuits in the brain are maximally active. These seizures are highly reproducible and are electrophysiologically consistent with human seizures. […] Abolition of the hindleg tonic extensor component of the seizure was used as the endpoint.

NaV1.7 [10] = target: T2, NaV1.7 (Homo sapiens, UniProt Q15858); experiment: Qube assay, NaV1.7; format: cell-based; settings: human isoform; read-out: Qube EP IC50 NaV1.7
Procedure: (§2) Evaluation of Compounds on Human Isoforms Using Qube Assay.
(§3) Compounds were tested using a Qube assay across NaV1.5, NaV1.6 and NaV1.7.

NaV1.7 [11] = target: T2, NaV1.7; experiment: High-throughput flux assay, NaV1.7; format: cell-based; settings: human isoform;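 further: IC50 from the flux assay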
Procedure: (§4) Evaluation of Compounds on Human Isoforms Using a High-Throughput Flux Assay
(§5) Compounds were tested using a high-throughput flux assay across Nav1.5, Nav1.6 and Nav1.7.

Nav1.6 [12] = target: T1, Nav1.6; experiment: Qube assay, NaV1.6; format: cell-based; settings: human isoform; read-out: Qube EP IC50 NaV1.6
Procedure: as §2, §3

NaV1.5 [13] = target: T3, NaV1.5 (Homo sapiens, UniProt Q14524); experiment: High-throughput flux assay, NaV1.5; format: cell-based; settings: human isoform;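 further: IC50 from the flux assay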
Procedure: as §4, §5

Nav1.6 [14] = target: T1, Nav1.6; experiment: High-throughput flux assay, Nav1.6; format: cell-based; settings: human isoform;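 further: IC50 from the flux assay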
Procedure: as §4, §5

NaV1.5 [15] = target: T3, NaV1.5; experiment: Qube assay, NaV1.5; format: cell-based; settings: human isoform; read-out: Qube EP IC50 NaV1.5
Procedure: as §2, §3

[16] = IP, Table 14, read-out: MES ED50
[17] = IP, Table 14, read-out: sCM ED50
[18] = 32 mA, Table 14, read-out: 6 Hz (32 mA) ED50
[19] = (14 mA) [sic], Table 14, read-out: 6 Hz (14 mA) ED50

T1 sequence (Q9UQD0 whole entry): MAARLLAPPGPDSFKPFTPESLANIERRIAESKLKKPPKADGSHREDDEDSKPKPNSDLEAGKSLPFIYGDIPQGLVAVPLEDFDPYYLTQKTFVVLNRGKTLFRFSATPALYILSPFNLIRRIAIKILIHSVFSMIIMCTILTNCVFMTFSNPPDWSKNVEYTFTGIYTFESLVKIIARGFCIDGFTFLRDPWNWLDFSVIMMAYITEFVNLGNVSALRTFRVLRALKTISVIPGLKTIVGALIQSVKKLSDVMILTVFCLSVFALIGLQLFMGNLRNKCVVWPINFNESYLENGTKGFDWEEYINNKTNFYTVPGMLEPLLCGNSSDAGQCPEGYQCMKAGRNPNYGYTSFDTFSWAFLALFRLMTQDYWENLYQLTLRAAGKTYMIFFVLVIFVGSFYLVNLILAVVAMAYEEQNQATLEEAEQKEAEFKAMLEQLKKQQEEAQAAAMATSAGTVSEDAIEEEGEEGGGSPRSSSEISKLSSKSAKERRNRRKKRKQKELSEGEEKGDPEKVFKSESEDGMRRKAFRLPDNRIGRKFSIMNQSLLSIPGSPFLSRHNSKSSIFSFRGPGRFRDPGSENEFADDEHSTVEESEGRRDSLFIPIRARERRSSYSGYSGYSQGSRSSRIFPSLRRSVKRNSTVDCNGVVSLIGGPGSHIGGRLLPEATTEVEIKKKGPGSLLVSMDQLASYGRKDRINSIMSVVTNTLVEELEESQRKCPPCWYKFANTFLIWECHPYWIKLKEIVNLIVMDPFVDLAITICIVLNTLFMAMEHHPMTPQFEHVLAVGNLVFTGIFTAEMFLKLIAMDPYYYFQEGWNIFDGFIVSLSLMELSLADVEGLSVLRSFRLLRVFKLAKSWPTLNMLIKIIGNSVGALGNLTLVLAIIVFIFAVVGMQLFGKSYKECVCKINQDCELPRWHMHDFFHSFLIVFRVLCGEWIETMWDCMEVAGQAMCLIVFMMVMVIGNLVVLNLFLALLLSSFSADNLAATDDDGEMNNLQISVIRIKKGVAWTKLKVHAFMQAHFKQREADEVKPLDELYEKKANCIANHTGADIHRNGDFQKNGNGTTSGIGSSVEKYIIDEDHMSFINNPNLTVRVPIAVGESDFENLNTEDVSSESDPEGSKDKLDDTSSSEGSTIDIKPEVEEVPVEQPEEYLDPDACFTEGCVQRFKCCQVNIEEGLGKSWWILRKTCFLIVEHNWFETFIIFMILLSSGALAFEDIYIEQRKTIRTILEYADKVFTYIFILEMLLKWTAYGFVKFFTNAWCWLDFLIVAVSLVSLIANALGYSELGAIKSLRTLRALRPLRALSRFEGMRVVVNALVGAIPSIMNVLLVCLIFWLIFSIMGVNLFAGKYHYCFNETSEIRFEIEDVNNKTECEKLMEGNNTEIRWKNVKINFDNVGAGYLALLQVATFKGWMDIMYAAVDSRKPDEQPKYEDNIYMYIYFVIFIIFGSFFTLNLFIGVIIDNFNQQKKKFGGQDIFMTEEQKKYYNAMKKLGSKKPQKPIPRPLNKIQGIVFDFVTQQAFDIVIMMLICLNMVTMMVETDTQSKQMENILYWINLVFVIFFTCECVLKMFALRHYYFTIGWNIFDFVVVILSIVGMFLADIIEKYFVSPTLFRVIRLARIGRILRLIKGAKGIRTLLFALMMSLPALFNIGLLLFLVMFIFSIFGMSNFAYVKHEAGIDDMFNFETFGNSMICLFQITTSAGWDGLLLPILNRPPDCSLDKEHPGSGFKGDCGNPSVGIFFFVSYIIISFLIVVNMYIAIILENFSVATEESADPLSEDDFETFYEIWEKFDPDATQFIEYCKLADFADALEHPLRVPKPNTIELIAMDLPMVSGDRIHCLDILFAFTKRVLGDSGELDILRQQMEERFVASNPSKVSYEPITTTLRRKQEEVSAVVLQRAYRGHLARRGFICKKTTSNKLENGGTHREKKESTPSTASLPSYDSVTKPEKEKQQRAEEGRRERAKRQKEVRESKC
T3 sequence (Q14524 whole entry, canonical isoform): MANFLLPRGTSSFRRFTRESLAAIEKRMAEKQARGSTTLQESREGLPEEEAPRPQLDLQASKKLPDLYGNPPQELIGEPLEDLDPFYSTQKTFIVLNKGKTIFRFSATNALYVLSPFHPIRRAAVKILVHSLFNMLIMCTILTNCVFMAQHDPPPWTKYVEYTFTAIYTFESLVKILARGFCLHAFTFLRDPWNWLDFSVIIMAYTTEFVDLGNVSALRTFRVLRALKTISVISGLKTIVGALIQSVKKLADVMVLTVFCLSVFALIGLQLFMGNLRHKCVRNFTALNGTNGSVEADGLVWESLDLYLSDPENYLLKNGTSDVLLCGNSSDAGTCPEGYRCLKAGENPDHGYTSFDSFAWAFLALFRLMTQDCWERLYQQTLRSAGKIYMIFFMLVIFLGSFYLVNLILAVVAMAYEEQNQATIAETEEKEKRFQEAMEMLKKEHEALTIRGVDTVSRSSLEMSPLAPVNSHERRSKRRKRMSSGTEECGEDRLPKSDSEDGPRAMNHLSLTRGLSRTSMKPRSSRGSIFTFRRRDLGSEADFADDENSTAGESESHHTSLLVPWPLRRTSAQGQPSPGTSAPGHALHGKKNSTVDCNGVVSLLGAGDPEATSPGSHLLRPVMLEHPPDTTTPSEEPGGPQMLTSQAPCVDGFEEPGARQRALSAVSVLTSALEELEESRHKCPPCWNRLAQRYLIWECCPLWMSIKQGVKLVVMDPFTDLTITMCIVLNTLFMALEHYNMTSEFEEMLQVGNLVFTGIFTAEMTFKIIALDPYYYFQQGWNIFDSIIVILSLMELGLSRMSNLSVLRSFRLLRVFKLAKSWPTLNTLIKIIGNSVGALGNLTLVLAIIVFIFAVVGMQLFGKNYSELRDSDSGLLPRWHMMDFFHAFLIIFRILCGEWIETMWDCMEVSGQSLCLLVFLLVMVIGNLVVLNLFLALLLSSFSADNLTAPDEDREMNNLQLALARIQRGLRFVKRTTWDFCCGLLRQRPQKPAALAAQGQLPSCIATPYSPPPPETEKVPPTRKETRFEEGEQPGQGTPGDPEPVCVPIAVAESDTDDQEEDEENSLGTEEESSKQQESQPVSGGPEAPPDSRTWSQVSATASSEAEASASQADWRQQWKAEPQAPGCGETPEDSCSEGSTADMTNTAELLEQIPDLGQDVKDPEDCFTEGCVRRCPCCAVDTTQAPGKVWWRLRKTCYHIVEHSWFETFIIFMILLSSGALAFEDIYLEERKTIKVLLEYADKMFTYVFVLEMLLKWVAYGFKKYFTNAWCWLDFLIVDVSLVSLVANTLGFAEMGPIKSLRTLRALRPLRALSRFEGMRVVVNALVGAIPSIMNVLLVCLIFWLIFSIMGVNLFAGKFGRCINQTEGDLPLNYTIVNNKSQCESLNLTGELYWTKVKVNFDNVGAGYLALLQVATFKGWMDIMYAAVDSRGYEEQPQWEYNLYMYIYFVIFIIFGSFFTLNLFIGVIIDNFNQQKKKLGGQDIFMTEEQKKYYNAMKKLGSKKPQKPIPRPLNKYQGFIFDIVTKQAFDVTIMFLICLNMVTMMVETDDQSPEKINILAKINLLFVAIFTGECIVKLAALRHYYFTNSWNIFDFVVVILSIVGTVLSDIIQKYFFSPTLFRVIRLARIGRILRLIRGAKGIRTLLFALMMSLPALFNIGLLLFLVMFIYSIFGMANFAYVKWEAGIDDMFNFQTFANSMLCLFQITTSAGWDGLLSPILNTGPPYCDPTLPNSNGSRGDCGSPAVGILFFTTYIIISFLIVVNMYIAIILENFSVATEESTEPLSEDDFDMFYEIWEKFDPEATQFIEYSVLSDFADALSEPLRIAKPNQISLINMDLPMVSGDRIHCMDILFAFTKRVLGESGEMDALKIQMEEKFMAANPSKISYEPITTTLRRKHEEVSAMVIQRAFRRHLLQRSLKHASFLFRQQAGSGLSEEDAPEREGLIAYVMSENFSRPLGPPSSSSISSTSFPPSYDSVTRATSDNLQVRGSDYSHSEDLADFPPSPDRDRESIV

## NC(=O)N1c2ccccc2C=Cc2ccccc21 [Carbamazepine, reference compound]
mice; mice, IP, Table 14
  TOX (TD50): 45.5 mg/kg
[1]; IP, Table 14
  sCM ED50: None
[2]; [16]
  ED50: 7.8 mg/kg
[3]; 32 mA
  6 Hz (32 mA) ED50: None
[3]; (14 mA) [sic]
  6 Hz (14 mA) ED50: None

## CCC1(C)CC(=O)NC1=O (stereo not shown) [Ethosuximide, reference compound]
mice; mouse, in vivo, ip
  TOX (TD50): 341 mg/kg
[4]; 44 mA
  activity in 6 Hz test: ineffective
[1]; [17]
  ED50: 136 mg/kg
[2]; IP, Table 14
  MES ED50: None
[3]; (14 mA) [sic]
  6 Hz (14 mA) ED50: None
[3]; [18]
  ED50: 167 mg/kg

## Nc1nnc(-c2cccc(Cl)c2Cl)c(N)n1 [Lamotrigine, reference compound]
[4]; 32 mA
  activity in 6 Hz test: lose activity
[1]; IP, Table 14
  sCM ED50: None
[2]; [16]
  ED50: 7.5 mg/kg
[3]; 32 mA
  6 Hz (32 mA) ED50: None
[3]; (14 mA) [sic]
  6 Hz (14 mA) ED50: None

## COc1ccc(-c2nc3ccccc3[nH]2)cc1 [MV1062, 2-(4-methoxyphenyl)-1H-1,3-benzodiazole]
In vivo
  TD50: 601 mg/kg
In vivo; ip
  TD50: 601 mg/kg
[5]; sc, read-out: ED50 (scM test)
  ED50: 123 mg/kg
[5]; IP, Table 15, read-out: sCM ED50
  ED50: 122 mg/kg
[1]; sc, read-out: ED50 (scM test)
  ED50: 206 mg/kg
[1]; [17]
  ED50: 206 mg/kg
[2]; [16]
  ED50: 30.8 mg/kg
[2]; read-out: ED50 (MES test)
  ED50: 30.8 mg/kg
[6]; 20 mg/kg
  Avg. Score: 5.0
  N/F (animals active over number tested): 0/8
[6]; 55 mg/kg
  Avg. Score: 4.0
  N/F (animals active over number tested): 3/8
[6]; 100 mg/kg
  Avg. Score: 1.375
  N/F (animals active over number tested): 7/8
[6]; Mus musculus
  ED50: 63.6 mg/kg
[7]; IP, Table 15, read-out: TOX TD50
  TD50: > 500 mg/kg
[7]; read-out: TD50 (behavioral toxic dose)
  TD50: > 500 mg/kg
Nav1.6 [8]
  inhibition at 100 µM: 70%
Nav1.6 [8]; NaV1.6, Table 2, MV1060-MV1091, unit inferred, read-out: IC50
  IC50: 90.2 µM
[9]; IP, Table 15, read-out: MES ED50
  ED50: 10.8 mg/kg
[9]; read-out: ED50 (MES test)
  ED50: 10.8 mg/kg
[3]; [18]
  ED50: 69.6 mg/kg
[3]; [19]
  ED50: 80.5 mg/kg

## COc1ccccc1-c1nc(C)c(C)[nH]1 [MV1364, 2-(2-METHOXY-PHENYL)-4,5-DIMETHYL-1H-IMIDAZOLE OXALATE]
Nav1.6 [8]
  inhibition at 100 µM: 70%

## Cc1nc(-c2ccc(Cl)cc2)[nH]c1C [MV1365, 2-(4-CHLORO-PHENYL)-4,5-DIMETHYL-1H-IMIDAZOLE OXALATE]
Nav1.6 [8]
  inhibition at 100 µM: 85%

## Cc1nc(-c2cccc(Cl)c2)[nH]c1C [MV1366, 2-(3-CHLORO-PHENYL)-4,5-DIMETHYL-1H-IMIDAZOLE OXALATE]
Nav1.6 [8]
  inhibition at 100 µM: 95%

## Cc1nc(-c2ccccc2Cl)[nH]c1C [MV1367, 2-(2-CHLORO-PHENYL)-4,5-DIMETHYL-1H-IMIDAZOLE OXALATE]
Nav1.6 [8]
  inhibition at 100 µM: 45%

## CCCc1nc(-c2ccc(OC)cc2)[nH]c1C [MV1368, 2-(4-METHOXY-PHENYL)-5-METHYL-4-PROPYL-1H-IMIDAZOLE OXALATE]
Nav1.6 [8]
  inhibition at 100 µM: 85%

## CCCc1nc(-c2cccc(OC)c2)[nH]c1C [MV1369, 2-(3-METHOXY-PHENYL)-5-METHYL-4-PROPYL-1H-IMIDAZOLE OXALATE]
Nav1.6 [8]
  inhibition at 100 µM: 100%

## CCCc1nc(-c2ccccc2OC)[nH]c1C [MV1370, 2-(2-METHOXY-PHENYL)-5-METHYL-4-PROPYL-1H-IMIDAZOLE OXALATE]
Nav1.6 [8]
  inhibition at 100 µM: 90%

## CCCc1nc(-c2ccc(Cl)cc2)[nH]c1C [MV1371, 2-(4-CHLORO-PHENYL)-5-METHYL-4-PROPYL-1H-IMIDAZOLE OXALATE]
Nav1.6 [8]
  inhibition at 100 µM: 100%

## CCCc1nc(-c2cccc(Cl)c2)[nH]c1C [MV1372, 2-(3-CHLORO-PHENYL)-5-METHYL-4-PROPYL-1H-IMIDAZOLE OXALATE]
Nav1.6 [8]
  inhibition at 100 µM: 100%

## COc1ccc(-c2nc(C)c(-c3ccccc3)[nH]2)cc1 [MV1501, 2-(4-methoxyphenyl)-4-methyl-5-phenyl-1H-imidazole hydrochloride]
NaV1.7 [10]
  IC50: 14.8 µM
NaV1.7 [11]
  IC50: 7.98 µM
Nav1.6 [12]
  IC50: 7.43 µM
Nav1.6 [8]
  inhibition at 100 µM: 90%
NaV1.5 [13]
  IC50: 6.24 µM
Nav1.6 [14]
  IC50: 2.74 µM
NaV1.5 [15]
  IC50: 27 µM

## COc1ccc(-c2nc(C)c(-c3ccccc3)[nH]2)cc1O [MV1508, 2-methoxy-5-(5-methyl-4-phenyl-1H-imidazol-2-yl)phenol hydrochloride]
NaV1.7 [10]
  IC50: 11.5 µM
NaV1.7 [11]
  IC50: 4.58 µM
Nav1.6 [12]
  IC50: 3.99 µM
Nav1.6 [8]
  inhibition at 100 µM: 90%
NaV1.5 [13]
  IC50: 2.61 µM
Nav1.6 [14]
  IC50: 1.88 µM
NaV1.5 [15]
  IC50: 11.9 µM

## CC(=O)Nc1ccc(-c2nc(C)c(-c3ccccc3)[nH]2)cc1 [MV1509, N-2,4-[3-methyl-4-phenyl-1H-imidazol-2-yl)phenyl]acetamide hydrochloride]
NaV1.7 [10]
  IC50: 30 µM
NaV1.7 [11]
  IC50: 23.8 µM
Nav1.6 [12]
  IC50: 8.24 µM
Nav1.6 [8]
  inhibition at 100 µM: 90%
NaV1.5 [13]
  IC50: 7.94 µM
Nav1.6 [14]
  IC50: 5.67 µM
NaV1.5 [15]
  IC50: 15.9 µM

## O=C1NC(=O)C(c2ccccc2)(c2ccccc2)N1 [Phenytoin, reference compound]
[4]; 32 mA
  activity in 6 Hz test: lose activity
[1]; IP, Table 14
  sCM ED50: None
[3]; 32 mA
  6 Hz (32 mA) ED50: None
[3]; (14 mA) [sic]
  6 Hz (14 mA) ED50: None

## CCCC(CCC)C(=O)O [Valproic Acid, reference compound]
[4]; 44 mA
  activity in 6 Hz test: need higher doses
[1]; [17]
  ED50: 220 mg/kg
[2]; [16]
  ED50: 263 mg/kg
[3]; [18]
  ED50: 126 mg/kg
[3]; [19]
  ED50: 310 mg/kg

## CC[C@@H](C(N)=O)N1CCCC1=O [levetiracetam]
[4]; 44 mA
  activity in 6 Hz test: need higher doses
